# Source: article PMC5979531, “Structural Requirements of Alkylglyceryl-L-Ascorbic Acid Derivatives for Melanogenesis Inhibitory Activity” (International Journal of Molecular Sciences, 2018)
# How the values were obtained:
# [1] = tested on: B16 melanoma 4A5 cells; experiment: Theophylline-stimulated melanogenesis inhibition (melanin content); type: cell-based, murine; conditions: 72 h; for Inhibition (%) of melanogenesis / inhibition at 3000 µM: 3000 µM; for Inhibition (%) of melanogenesis / inhibition at 1000 µM / inhibition at 3000 µM / inhibition at 100 µM / inhibition at 300 µM / inhibition at 3 µM / inhibition at 10 µM / inhibition at 30 µM: theophylline-stimulated B16 4A5 cells; for inhibition at 1000 µM / inhibition at 3000 µM / IC50 / inhibition at 100 µM / inhibition at 300 µM / inhibition at 3 µM / inhibition at 10 µM / inhibition at 30 µM: Mus musculus; for IC50: theophylline (1 mM)-stimulated B16 melanoma 4A5 cells
# Protocol: (§1) The effects on theophylline-stimulated melanogenesis and viability of B16 melanoma 4A5 cells were examined according to previously described protocols. Briefly, murine B16 melanoma 4A5 cells were seeded into 48-well plates in DMEM. After 24 h of culture, a test compound and theophylline (1 mM) were added and incubated for 72 h. The melanin content and cell viability were then measured. IC50 values were determined graphically.
# Inhibition (%) was calculated using the following formula, where A and B indicate the optical density of the vehicle- and test compound-treated groups, respectively, and C indicates cell viability (%) (see below): Inhibition (%) = [(A − B)/A]/(C/100) × 100.
# [2] = Cell viability of B16 melanoma 4A5 cells; type: cell-based, murine; conditions: mouse, B16 4A5 cells
# Protocol: as §1
# [3] = tested on: tyrosinase from mushroom; experiment: Mushroom tyrosinase activity; type: biochemical
# Protocol: Tyrosinase activities using L-tyrosine or L-DOPA as a substrate were determined according to the protocols described previously. Briefly, samples, L-tyrosine (2.5 mM, or L-DOPA, 3.0 mM), mushroom tyrosinase (46 units/mL), and phosphate buffer were mixed in a 96-well plate and incubated at 25 °C. (L-tyrosine; 30 min, L-DOPA; 5 min). The absorbance was then measured at 492 nm.
SMILES,Inhibition (%) of melanogenesis [1],inhibition at 1000 µM [1],inhibition at 3000 µM [1],IC50 [1],"viability at 72 h, 1000 µM [2]","viability at 72 h, 3000 µM [2]",inhibition at 100 µM [1],inhibition at 300 µM [1],"viability at 72 h, 100 µM [2]","viability at 72 h, 300 µM [2]",inhibition at 3 µM [1],inhibition at 10 µM [1],inhibition at 30 µM [1],"viability at 72 h, 3 µM [2]","viability at 72 h, 10 µM [2]","viability at 72 h, 30 µM [2]","Inhibition (%) of mushroom tyrosinase ([3]; Substrate: L-DOPA, 30 µM)","Inhibition (%) of mushroom tyrosinase ([3]; Substrate: L-DOPA, 100 µM)","Inhibition (%) of mushroom tyrosinase ([3]; Substrate: L-Tyrosine, 30 µM)","Inhibition (%) of mushroom tyrosinase ([3]; Substrate: L-Tyrosine, 100 µM)"
"O=C1O[C@H]([C@@H](O)CO)C(O)=C1O[C@H]1O[C@H](CO)[C@@H](O)[C@H](O)[C@H]1O [2-O-α-D-Glucopyranosyl-AsA, reference compound]",significantly inhibit melanogenesis,-8.9 ± 2.7%,15 ± 3.5%,> 3000 µM,107%,108%,,,,,,,,,,,,,,
"OC[C@H]1O[C@@H](Oc2ccc(O)cc2)[C@H](O)[C@@H](O)[C@@H]1O [Arbutin, reference compound]",,63 ± 2.3%,94 ± 2.8%,830 µM,96.2%,106%,32.2 ± 3.4%,22.3 ± 4.3%,92.2%,96%,,,,,,,,,,
"O=C1O[C@H]([C@H](O)CO)C(O)=C1O [Erythrobic acid, reference compound]",,75.8 ± 4.2%,92.6 ± 15.3%,,44.5%,29.8%,-22.9 ± 6.5%,-10.6 ± 4.8%,98.7%,94.8%,,,,,,,,,,
"Oc1ccc(O)cc1 [Hydroquinone, reference compound]",,,,8.7 µM,,,,,,,37.4 ± 3.7%,59.5 ± 3.7%,76.3 ± 2.1%,94.1%,85.2%,64.3%,,,,
"O=C1O[C@H]([C@@H](O)CO)C(O)=C1OP(=O)(O)O [Magnesium L-ascorbyl-2-phosphate, reference compound]",significantly inhibit melanogenesis,2.1 ± 4.1%,14.5 ± 1.3%,> 3000 µM,126%,92.8%,,,,,,,,,,,,,,
"O=C1O[C@H]([C@@H](O)CO)C(OCC(O)CO)=C1O (stereo partly shown) [compound 1, 3-O-(2,3-dihydroxypropyl)-AsA]",,-5 ± 2.9%,0.5 ± 2.5%,> 3000 µM,100%,108%,-11.8 ± 1.9%,-10.7 ± 1.1%,100%,96.8%,,,,,,,,,,
"CCOC1=C(OCC(O)CO)[C@@H]([C@@H](O)CO)OC1=O (stereo partly shown) [compound 2, 3-O-(2,3-dihydroxypropyl)-2-O-ethyl-AsA]",,-8.9 ± 2%,40.4 ± 8.6%,> 3000 µM,101%,104%,-28.1 ± 3.2%,-2.8 ± 3.6%,101%,99.7%,,,,,,,,,,
"CCCOC1=C(OCC(O)CO)[C@@H]([C@@H](O)CO)OC1=O (stereo partly shown) [compound 3, 3-O-(2,3-dihydroxypropyl)-2-O-propyl-AsA]",,2.5 ± 7.9%,35.9 ± 3.4%,> 3000 µM,94.5%,95%,-2.1 ± 5.3%,8.2 ± 3.2%,102%,98.2%,,,,,,,,,,
"CCCCOC1=C(OCC(O)CO)[C@@H]([C@@H](O)CO)OC1=O (stereo partly shown) [compound 4, 2-O-butyl-3-O-(2,3-dihydroxypropyl)-AsA]",,30.2 ± 5.1%,58.9 ± 2.7%,2220 µM,93.9%,88.7%,-1.2 ± 0.8%,20.8 ± 10.6%,94.5%,97.4%,,,,,,,,,,
"CCCCCOC1=C(OCC(O)CO)[C@@H]([C@@H](O)CO)OC1=O (stereo partly shown) [compound 5, 3-O-(2,3-dihydroxypropyl)-2-O-pentyl-AsA]",,45.9 ± 1.2%,81.9 ± 3.3%,931 µM,105%,78.7%,-14 ± 9.7%,29.8 ± 8.1%,118%,107%,,,,,,,,,,
"CCCCCCCOC1=C(OCC(O)CO)[C@@H]([C@@H](O)CO)OC1=O (stereo partly shown) [compound 7, 3-O-(2,3-dihydroxypropyl)-2-O-heptyl-AsA]",,,,89.1 µM,,,52.2 ± 5%,,79.7%,,-4.2 ± 6.3%,3.4 ± 5.2%,20 ± 6.4%,101%,95.4%,91.9%,−0.7 ± 3.1%,1.1 ± 4.8%,−1.7 ± 4.0%,1.0 ± 2.4%
"O=C1O[C@H]([C@@H](O)CO)C(O)=C1OCC(O)CO (stereo partly shown) [compound 15, 2-O-(2,3-dihydroxypropyl)-AsA]",,-2.3 ± 1.7%,-6.1 ± 2.7%,> 3000 µM,102%,107%,-9.7 ± 1.2%,-4.8 ± 1%,101%,102%,,,,,,,,,,
"CCOC1=C(OCC(O)CO)C(=O)O[C@@H]1[C@@H](O)CO (stereo partly shown) [compound 16, 2-O-(2,3-dihydroxypropyl)-3-O-ethyl-AsA]",,12.1 ± 2.2%,42 ± 1.4%,> 3000 µM,95.9%,84%,-4.2 ± 2.3%,-5.4 ± 1.5%,105%,95.9%,,,,,,,,,,
"CCCOC1=C(OCC(O)CO)C(=O)O[C@@H]1[C@@H](O)CO (stereo partly shown) [compound 17, 2-O-(2,3-dihydroxypropyl)-3-O-propyl-AsA]",,1.3 ± 4.2%,23.2 ± 5.6%,> 3000 µM,92%,82.9%,-5.9 ± 3.3%,-3.9 ± 4.1%,98.4%,95.6%,,,,,,,,,,
"CCCCOC1=C(OCC(O)CO)C(=O)O[C@@H]1[C@@H](O)CO (stereo partly shown) [compound 18, 3-O-butyl-2-O-(2,3-dihydroxypropyl)-AsA]",,68 ± 2.1%,84.1 ± 1.4%,473 µM,78.1%,70.6%,0.2 ± 4.4%,36.3 ± 2.8%,99.8%,89.1%,,,,,,,,,,
"CCCCCOC1=C(OCC(O)CO)C(=O)O[C@@H]1[C@@H](O)CO (stereo partly shown) [compound 19, 2-O-(2,3-dihydroxypropyl)-3-O-pentyl-AsA]",,83.1 ± 1.4%,97.1 ± 0.9%,283 µM,54.7%,22.5%,14 ± 4.4%,53 ± 1.1%,86.7%,73.4%,,,,,,,,,,
